From patent US20080085884A1, “Melanin Concentrating Hormone Receptor-1 Antagonist Pyridinones” (Pfizer Inc, priority 2006, published 2008)
Counter-ions that a name gives are not always drawn.

These compounds were tested against T1, human MCHR1 (Homo sapiens, UniProt Q99705) (assay: Cyclic AMP assay (MCHR-1 functional antagonism)). Conditions: CHO cells stably expressing human MCHR1; cAMP accumulation with 25 uM forskolin and 0.2 nM MCH, 90 min; Ki from IC50 by Cheng-Prusoff; read-out: MCHR-1 functional Ki.
T1 construct: host or cells: CHO
Type: cell-based
Description: CHO cell lines stably expressing the human MCHR1 (Euroscreen, Brussels, Belgium) were maintained in DMEM containing Glutamax (Invitrogen, Carlsbad, Calif.), 10% FBS, 400 ug/ml Geneticin.
Cyclic AMP assays. CHO cells stably expressing the human MCHR1 receptors were collected and resuspended at a density of 4.0×10^6 cells/ml in F12 (Hams) media and seeded (20,000 cells per well) into 384-well, solid white Greiner assay plates. […] Cells were incubated at 37° C./5% CO2 for 90 minutes and cAMP accumulation subsequently determined by DiscoveRx Hithunter c-AMP II Assay kit (GE Healthcare, Buckinghamshire, UK) in accordance with manufactures instructions. Luminescence was measured on a LEADseaker imaging system (GE Healthcare, Buckinghamshire, UK). IC50 values were calculated from dose-response data fit using an in-house computer graphics and statistics program.

T1 sequence (Q99705 whole entry): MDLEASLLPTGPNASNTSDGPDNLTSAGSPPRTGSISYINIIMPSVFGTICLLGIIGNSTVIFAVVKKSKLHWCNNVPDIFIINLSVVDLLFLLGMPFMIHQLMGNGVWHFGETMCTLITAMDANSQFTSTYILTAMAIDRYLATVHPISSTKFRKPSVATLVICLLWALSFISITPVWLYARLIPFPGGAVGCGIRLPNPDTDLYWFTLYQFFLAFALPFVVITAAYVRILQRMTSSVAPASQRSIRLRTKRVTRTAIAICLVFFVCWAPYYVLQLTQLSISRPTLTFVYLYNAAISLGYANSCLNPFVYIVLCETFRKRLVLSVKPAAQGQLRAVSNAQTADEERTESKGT

SMILES	Ki
O=c1cc(OCc2ccc(Cl)c(F)c2)ccn1-c1ccc(N2CC[C@@H](O)C2)nc1 [Example 146]	60.1 nM
NC1CN(c2ccc(-n3ccc(OCc4ccc(F)cc4)cc3=O)cn2)C1 [Example 35]	232 nM
CN[C@@H]1CCN(c2ccc(-n3ccc(OCc4ccccc4)cc3=O)nc2)C1 [Example 33, 4-(Benzyloxy)-5′-[(3R)-3-(methylamino)pyrrolidin-1-yl]-2H-1,2′-bipyridin-2-one]	19.4 nM
O=c1cc(OCc2ccc(F)cc2)ccn1-c1ccc(N2CC[C@@H](O)C2)nc1 [Example 113]	50.4 nM
CC(=O)N[C@@H]1CCN(c2ccc(-n3ccc(OCc4ccc(Cl)cc4)cc3=O)cn2)C1 [Example 175]	58.5 nM
O=C1CCCN1[C@H]1CCN(c2ccc(-n3ccc(OCc4ccccc4)cc3=O)cn2)C1 [Example 27]	71.4 nM
CC(C)C(=O)N1C[C@@H]2CN(c3ccc(-n4ccc(OCc5ccc(F)cc5)cc4=O)cn3)C[C@@H]2C1 [Example 170]	29.1 nM
CC(=O)N1C[C@@H]2CN(c3ccc(-n4ccc(OCc5ccc(F)cc5)cc4=O)cn3)C[C@@H]2C1 [Example 164]	66.8 nM
CCCC(=O)N[C@H]1CCN(c2ccc(-n3ccc(OCc4ccccc4)cc3=O)cn2)C1 [Example 169]	19.4 nM
COC(=O)N(C)[C@@H]1CCN(c2ccc(-n3ccc(OCc4ccc(F)cc4)cc3=O)cn2)C1 [Example 179]	18.9 nM
O=c1cc(OCc2ccc(Cl)cc2F)ccn1-c1ccc(N2CC[C@@H](O)C2)nc1 [Example 147]	26.2 nM
COC(=O)N[C@@H]1CCN(c2ccc(-n3ccc(OCc4ccc(F)cc4)cc3=O)cn2)C1 [Example 192]	144 nM
CCN(C(C)=O)[C@@H]1CCN(c2ccc(-n3ccc(OCc4ccccc4)cc3=O)cn2)C1 [Example 160]	26.8 nM
O=c1cc(OCc2ccc(Cl)cc2)ccn1-c1ccc(N2CC[C@@H](O)C2)nc1 [Example 10, 4-[(4-Chlorobenzyl)oxy]-6′-[(3R)-3-hydroxypyrrolidin-1-yl]-2H-1,3′-bipyridin-2-one]	42.8 nM
COC1CCN(c2ccc(-n3ccc(OCc4ccccc4)cc3=O)cn2)C1 (stereo not shown) [Example 37]	42.7 nM
CNC1CN(c2ccc(-n3ccc(OCc4ccccc4)cc3=O)cn2)C1 [Example 111]	161 nM

SMILES	Ki
O=c1cc(OCc2ccccc2)ccn1-c1ccc(N2CCCCC2)nc1 [Example 110]	41.6 nM
COC(=O)N[C@@H]1CCN(c2ccc(-n3ccc(OCc4ccccc4)cc3=O)cn2)C1 [Example 188]	218 nM
CCOC(=O)N[C@H]1CCN(c2ccc(-n3ccc(OCc4ccccc4)cc3=O)cn2)C1 [Example 176]	29.9 nM
CC(C)CC1CN(c2ccc(-n3ccc(OCc4ccccc4)cc3=O)cn2)CCN1 (stereo not shown) [Example 71]	626 nM
CC(=O)N1C[C@@H]2CN(c3ccc(-n4ccc(OCc5ccccc5)cc4=O)cn3)C[C@@H]2C1 [Example 158]	49.8 nM
CC(C)C1CN(c2ccc(-n3ccc(OCc4ccccc4)cc3=O)cn2)CCN1 (stereo not shown) [Example 70]	102 nM
CC(=O)N1CCN(c2ccc(-n3ccc(OCc4ccc(F)cc4)cc3=O)cn2)CC1 [Example 83]	851 nM
CN[C@H]1CCN(c2ccc(-n3ccc(COc4ccccc4)cc3=O)cn2)C1 [Example 122]	110 nM
NC1CCN(c2ccc(-n3ccc(OCc4ccccc4)cc3=O)cn2)CC1 [Example 214]	106 nM
CNC1CCN(c2ccc(-n3ccc(OCc4ccccc4)cc3=O)cn2)CC1 [Example 230]	69.8 nM
CCN(C(C)=O)[C@H]1CCN(c2ccc(-n3ccc(OCc4ccccc4)cc3=O)cn2)C1 [Example 161]	33.3 nM
CCC1CN(c2ccc(-n3ccc(OCc4ccccc4)cc3=O)cn2)CCN1 (stereo not shown) [Example 223]	197 nM
CC(=O)N1CCN(c2ccc(-n3ccc(OCc4ccccc4)cc3=O)cn2)CC1 [Example 1, 6′-(4-Acetylpiperazin-1-yl)-4-(benzyloxy)-2H-1,3′-bipyridin-2-one]	47.7 nM
CCOC(=O)N[C@@H]1CCN(c2ccc(-n3ccc(OCc4ccccc4)cc3=O)cn2)C1 [Example 43]	364 nM
O=c1cc(OCc2ccccc2)ccn1-c1ccc(N2CC[C@@H](O)C2)nc1 [Example 11, 4-(Benzyloxy)-6′-[(3R)-3hydroxypyrrolidin-1-yl]-2H-1,3′-bipyridin-2-one]	97.2 nM

Other lines, results leading:

Ki	SMILES
15.2 nM	CC(=O)N(C)[C@H]1CCN(c2ccc(-n3ccc(OCc4ccccc4)cc3=O)cn2)C1 [Example 20, N-{(3S)-1-[4-(Benzyloxy)-2-oxo-2H-1,3′-bipyridin-6′-yl]pyrrolidin-3-yl}-N-methylacetamide]
3.46 nM	CN[C@H]1CCN(c2ccc(-n3ccc(OCc4cccc(Cl)c4)cc3=O)cn2)C1 [Example 149]
11 nM	CC(=O)N(C)[C@@H]1CCN(c2ccc(-n3ccc(OCc4ccc(Cl)cc4)cc3=O)cn2)C1 [Example 172]
3.62 nM	CN[C@@H]1CCN(c2ccc(-n3ccc(OCc4ccccc4)cc3=O)cn2)C1 [Example 15, 4-(benzyloxy)-6′-[(3R)-3-(methylamino)pyrrolidin-1-yl]-2H-1,3′-bipyridin-2-one dihydrochloride]
7.7 nM	CN(C(=O)OC(C)(C)C)[C@@H]1CCN(c2ccc(-n3ccc(OCc4ccc(Cl)cc4)cc3=O)cn2)C1 [Example 197]
2.31 nM	CN[C@H]1CCN(c2ccc(-n3ccc(OCc4ccc(Cl)c(F)c4)cc3=O)cn2)C1 [Example 152]
10.9 nM	COC(=O)N(C)[C@H]1CCN(c2ccc(-n3ccc(OCc4ccccc4)cc3=O)cn2)C1 [Example 181]
11 nM	N[C@@H]1[C@H]2CN(c3ccc(-n4ccc(OCc5ccccc5)cc4=O)cn3)C[C@@H]12 [Example 217]
5.43 nM	O=c1cc(OCc2ccc(Cl)cc2)ccn1-c1ccc(N2C[C@H]3CNC[C@H]3C2)nc1 [Example 107]
10.6 nM	CN(C(=O)OC(C)(C)C)[C@H]1CCN(c2ccc(-n3ccc(OCc4ccc(Cl)cc4)cc3=O)cn2)C1 [Example 198]
6.51 nM	CC(C)N1C[C@H]2CN(c3ccc(-n4ccc(OCc5ccc(F)cc5)cc4=O)cn3)C[C@H]2C1 [Example 207]
3.69 nM	CN(C)[C@@H]1CCN(c2ccc(-n3ccc(OCc4ccccc4)cc3=O)cn2)C1 [Example 56]
13.1 nM	CC(=O)N(C)[C@H]1CCN(c2ccc(-n3ccc(OCc4ccc(Cl)cc4)cc3=O)cn2)C1 [Example 173]
18.7 nM	O=c1cc(OCc2ccccc2)ccn1-c1ccc(N2CCC(N3CCC3)C2)nc1 (stereo not shown) [Example 61]
2.94 nM	CC(C)N(C)[C@H]1CCN(c2ccc(-n3ccc(OCc4ccccc4)cc3=O)cn2)C1 [Example 60]
10.6 nM	CC(C)N1C[C@H]2CN(c3ccc(-n4ccc(OCc5ccccc5)cc4=O)cn3)C[C@H]2C1 [Example 209]
12.1 nM	O=c1cc(OCc2ccccc2)ccn1-c1ccc(N2CCC(N3CCCC3)C2)nc1 (stereo not shown) [Example 63]
6.78 nM	CCN[C@@H]1CCN(c2ccc(-n3ccc(OCc4ccccc4)cc3=O)cn2)C1 [Example 19, 4-(Benzyloxy)-6′-[(3R)-3-(ethylamino)pyrrolidin-1-yl]-2H-1,3′-bipyridin-2-one]
2.72 nM	O=c1cc(OCc2ccc(F)cc2)ccn1-c1ccc(N2C[C@@H]3CN(C4CCC4)C[C@@H]3C2)nc1 [Example 208]
2.02 nM	CN[C@H]1CCN(c2ccc(-n3ccc(OCc4ccc(Cl)cc4F)cc3=O)cn2)C1 [Example 153]

Same assay, conditions: MCHR-1 functional Ki (nM), CHO cells stably expressing human MCHR1; cAMP accumulation with 25 uM forskolin and 0.2 nM MCH, 90 min; Ki from IC50 by Cheng-Prusoff

SMILES	Ki
N[C@@H]1CCN(c2ccc(-n3ccc(OCc4ccccc4)cc3=O)cn2)C1 [Example 54]	5.91 nM
